# Test results published in patent US20150299233A1, “COMPOSITIONS AND METHODS COMPRISING RHENIUM FOR THE TREATMENT OF CANCERS” (Massachusetts Institute of Technology, priority 2014, published 2015).
# Experiments:
# [1] = Variable-temperature 1H NMR stability in DMSO; format: physicochemical; conditions: intact up to 75° C.
# Procedure: Two rhenium(v) oxo complexes (1 and 2; see Scheme 1) were prepared by reacting ReOCI3)2 with […] of the corresponding bidentate ligand in methanol. The complexes were isolated in reasonable yields as pale green solids and fully characterized by NMR and IR spectroscopy, ESI-MS spectrometry, and elemental analysis.
# Synthesis and Characterization. The rhenium(V) oxo complexes 1 and 2 (see Scheme 1) were prepared by the reaction of [ReOCl3(PPh3)2] with 1.5 equiv of the corresponding bidentate ligand in methanol (Scheme 1). The complexes were isolated in reasonable yields as pale green solids and fully characterized by NMR and IR spectroscopy and ESI mass spectrometry. The purity of the complexes was confirmed by elemental analysis.
# C57BL/6 mice = assay: In vivo acute toxicity in mice; conditions: single i.p. doses 3-36 mg/kg in saline, monitored 6 days
# Procedure: In Vivo Toxicity and Stability in Whole Human Blood. Given the impressive in vitro data acquired for 1 and 2, an in vivo study was conducted with C57BL/6 mice to determine acute toxicity and possible side effects. Single doses of 1 and 2 (3, 7, 11,15, 20, and 36 mg/kg) in saline were administered by intraperitoneal injection. The mice were then monitored for signs of pain, distress, and weight loss for 6 days post-treatment. […] The pharmacological toxicity profile of 1 and 2 is very appealing in terms of further preclinical studies.
# A549 cells [2] = assay: Hoechst 33258/propidium iodide double staining, fluorescence microscopy; format: cell-based, human; conditions: for nuclear staining, Hoechst 33258 and PI uptake: 20 μM for 12 h; for PI staining on co-incubation with necrostatin-1: necrostatin-1 60 μM for 12 h
# Procedure: Intracellular ROS production and mitochondrial membrane depletion contribute to necroptosis. Cells undergoing necroptosis display necrosis-like morphological features such as loss of cell membrane integrity, increase in organelle and cell volume (oncosis), and intact nuclear membrane. To further test whether 1- and 2-treatment can trigger necroptosis, Hoechst 33258/propidium iodide (PI) double staining was carried out to determine nuclear membrane morphology and integrity. Hoechst 33258 is a DNA minor groove binder that is routinely used to visualize the nucleus without the need for cell permeabilization. When used without cell permeabilization agents, PI stains the nuclei of necrotic cells. Early-stage apoptotic and normal cells maintain cell membrane integrity and thus are not stained by PI. A549 cells were treated with 1 and 2 (20 μM for 12 h), incubated with Hoechst 33258 and PI, and imaged using a fluorescence microscope.
# Fluorescence Microscopy. A549 cells (1.5×10^6 cells/well) were incubated with and without 1 and 2 (20 μM) for 12 h. The media were then removed, and the cells were washed with additional media (2 mL×2). After incubation of the cells with more media containing Hoechst 33258 (7.5 μM) and PI (5 μM), the nuclear regions were imaged using a fluorescence microscope. Fluorescence imaging experiments were performed using a Zeiss Axiovert 200M inverted epifluorscence microscope with a Hamamatsu EM-CCD digital camera C9100 and a MS200 XY Piezo Z stage (Applied Scientific Instruments, Inc.). An X-Cite 120 metal halide lamp (EXFO) was used as the light source. Zeiss standard filter set 49 was employed for imaging the nuclear region. The microscope was operated with Volocity software (version 6.01, Improvision). The exposure time for acquisition of fluorescence images was kept constant for each series of images at each channel.
# A549 cells [3] = assay: Immunoblotting analysis of treated A549 cells; format: cell-based, human; conditions: for cleaved caspases 7 and 9: 50-500 nM for 72 h; for FADD and cleaved caspase 8 expression: increasing concentration; for overall expression level of RIP1 and RIP3: increasing dosages
# Procedure: In order to determine the cell-killing mechanism of 1 and 2, cytotoxicity studies in the presence of apoptosis and necrosis inhibitors were conducted. […] The possibility that 1 and 2 induce necroptosis was then investigated. Necroptosis is a well-regulated mode of cell death that is different from unregulated necrosis and apoptosis. Unlike unregulated necrosis, which can be induced by H2O2 or heat, necroptosis generally involved the interaction of protein kinases, RIP1 and RIP3, to initiate cell disintegration. This process can be blocked by necrostatin-1, a potent RIP1 kinase inhibitor. To determine whether 1 and 2 induced necroptosis and/or uncontrolled necrosis, cytotoxicity studies were conducted in the presence of necrostatin-1 (60 μM) and IM-54 (10 μM), an inhibitor of H2O2-induced necrosis. […] Therefore, 1- and 2-induced cell death relies on RIP1-RIP3 complex formation and not on the expression levels of the individual protein kinases. RIP1 can also form a cytosolic complex with Fas-associated death domain (FADD) and caspase 8, known as a ripoptosome, to initiate apoptosis (through caspase 8 cleavage).
# (PARP-1). PARP-1 is a nuclear enzyme that is involved in DNA repair and transcriptional regulation. DNA damage can trigger PARP-1 activity, resulting in ATP and NAD depletion and bioenergetics- mediated cell death. To determine whether PARP-1 activity is a factor in 1- and 2-mediated cell death, cytotoxicity assays were conducted with wild-type mouse embryonic fibroblast cells (MEFs PARP-1+/+) and the corresponding PARP-1-null cells (MEFs PARP-1−/−). […] Recently, p53 has also been reported to play a role in necroptosis. p53 induces cathepsin Q, a lysosomal protease that cooperates with ROS to execute necrosis. To investigate whether p53 might play a role in 1- and 2-mediated necroptosis, cytotoxicity studies were conducted with HCT116 p53^+/+ nd HCT116 p53^−/− cells.
# Immunoblotting Analysis. A549 cells (1.5×10^6 cells/well) grown in six-well plates were incubated with 1 and 2 (concentrations, sub-μM) for 72 h at 37° C. Cells were washed with PBS, scraped into SDS-PAGE loading buffer (64 mM Tris-HCl (pH 6.8)/9.6% glycerol/2% SDS/5% /1-mercaptoethanol/0.01% Bromophenol Blue), and incubated at 95° C. for 10 min. Whole cell lysates were resolved by 4-20% sodium dodecyl sulfate polyacylamide gel electrophoresis (SDS-PAGE; 200 V for 25 min), followed by electro-transfer to polyvinylidene difluoride membrane (350 mA for 1 h). Membranes were blocked in 5% (w/v) non-fat milk in PBST (PBS/0.1% Tween 20) and incubated with the appropriate primary antibodies (Cell Signalling Technology and Santa Cruz). After incubation with horseradish peroxidase-conjugated secondary antibodies (Cell Signalling Technology), immuno complexes were detected with the ECL detection reagent (BioRad) and analyzed using an Alpha Innotech Chemilmager 5500 instrument fitted with a chemiluminescence filter.
# A549 cells [4] = assay: Cytotoxicity in the presence of cell death inhibitors, A549 cells; format: cell-based, human; conditions: for effect of co-treatment with IM-54 on toxicity: IM-54 10 μM, FIG. 1B; for effect of co-incubation with necrostatin-1 on toxicity, A549: necrostatin-1 60 μM, t test p<0.05, FIG. 1B
# Procedure: In order to determine the cell-killing mechanism of 1 and 2, cytotoxicity studies in the presence of apoptosis and necrosis inhibitors were conducted. […] The possibility that 1 and 2 induce necroptosis was then investigated. […] To determine whether 1 and 2 induced necroptosis and/or uncontrolled necrosis, cytotoxicity studies were conducted in the presence of necrostatin-1 (60 μM) and IM-54 (10 μM), an inhibitor of H2O2-induced necrosis.
# Cytotoxicity MTT Assay. […] Cells (2×10^3 cells/well) were seeded in a 96-well plate. […] 1 and 2 were prepared as 10 mM solutions in DMSO and diluted using media. The final concentration of DMSO in each well was 0.5%, and this amount was also present in the untreated control. After 72 h, the medium was removed, 200 μL of a 0.4 mg/mL solution of MTT in DMEM, RPMI, or McCoy's 5A was added, and the plate was incubated for an additional 1-2 h. The DMEM/MTT, RPMI/MTT, or McCoy's 5A/MTT mixture was aspirated, and 200 μL of DMSO was added to dissolve the resulting purple formazan crystals. The absorbance of the solution wells was read at 550 nm. Absorbance values were normalized to DMSO-containing control wells and plotted as the concentration of test compound versus % cell viability. IC50 values were interpolated from the resulting dose-dependent curves. The reported IC50 values are the average from at least three independent experiments, each of which consisted of six replicates per concentration level.
# For specific cell death inhibitor assays, inhibitors of necroptosis (necrostatin-1, 60 μM), H2O2-induced necrosis (IM-54, 10 μM), and apoptosis (v-VAD-FMK, 5 μM) were added to cells and incubated for 1 h prior to treatment with the test compounds.
# [5] = tested on: MDA-MB-231 (breast adenocarcinoma); assay: MTT cytotoxicity assay, MDA-MB-231 cells; format: cell-based, human; conditions: Table 2; cisplatin-resistant cell line; 72 h exposure; read-out: IC50 MDA-M8-231 breast adenocarcinoma
# [6] = tested on: MCF-7 (breast adenocarcinoma); assay: MTT cytotoxicity assay, MCF-7 cells; format: cell-based, human; conditions: Table 2; cisplatin-resistant cell line; 72 h exposure
# NTERA-2 = assay: MTT cytotoxicity assay, NTERA-2 cells; format: cell-based, human; conditions: Table 1; 72 h exposure; ± standard deviation; read-out: IC50 NTERA-2 testis carcinoma
Structure (SMILES),stability in DMSO [1],"acute toxicity in mice, gauged by weight loss (C57BL/6 mice)","nuclear staining, Hoechst 33258 and PI uptake (A549 cells [2])",PI staining on co-incubation with necrostatin-1 (A549 cells [2]),"markers of DNA damage, phosphorylated H2AX (γH2AX) and CHK2 (A549 cells [3])",cleaved caspases 7 and 9 (A549 cells [3]),FADD and cleaved caspase 8 expression (A549 cells [3]),overall expression level of RIP1 and RIP3 (A549 cells [3]),effect of co-treatment with IM-54 on toxicity (A549 cells [4]),"effect of co-incubation with necrostatin-1 on toxicity, A549 (A549 cells [4])",IC50 [5] [nM],IC50 [6] [nM],IC50 (NTERA-2) [nM]
"C[O][Re-2]1(=[O])([Cl])([Cl])[n+]2cc(C)c(C)c3ccc4c(C)c(C)c[n+]1c4c32 [Compound 2, [ReO(OMe)(3,4,7,8-tetramethyl-1,10-phenanthroline)Cl2]]",stable,no toxicity,pink nuclei,unstained by PI,did not up-regulate,not detected,remained unaltered,remained unchanged,did not significantly affect the toxicity,markedly decreased the toxicity,1740 ± 275,805 ± 21,255 ± 35
"C[O][Re](=[O])([Cl])[Cl].c1ccc(-c2ccnc3c2ccc2c(-c4ccccc4)ccnc23)cc1 [Compound 1, [ReO(OMe)(4,7-diphenyl-1,10-phenanthroline)-Cl2]]",stable,no toxicity,pink nuclei,unstained by PI,did not up-regulate,not detected,remained unaltered,remained unchanged,did not significantly affect the toxicity,markedly decreased the toxicity,475 ± 161,285 ± 35,230 ± 28
